Laboratory results as given in US20240197897A1, “HETEROTANDEM BICYCLIC PEPTIDE COMPLEXES” (Bicycle Tx Limited, priority 2021, published 2024).
Starred links: 1 amine or outer side, 2 acyl side, 3 side chain; linkers in the order of their positions; H or OH if unused. Positions of bridges follow the written chain, without caps; N, C: chain ends. Non-standard residues stand in square brackets, D forms with d. Residues, ends and D or L forms follow the SMILES beside them. Chains are numbered I, II in the order given. No end group written: not given here. *: point of attachment. TATA = O=C(CC[*:1])N1CN(C(=O)CC[*:2])CN(C(=O)CC[*:3])C1; X2 = O=C(CCOCCOCCOCCOCCOCCn1cc(CCC(=O)[*:2])nn1)[*:1]; Hyp = O=C(O)[C@@H]1C[C@@H](O)CN1; hArg = N=C(N)NCCCC[C@H](N)C(=O)O; Cba = N[C@@H](CC1CCC1)C(=O)O; Pent4ynoyl = C#CCCC(=O)*

Columns and labels:
[1] = NK cytotoxicity assay (NK:HT1080-luc co-culture, luciferase readout); format: cell-based, human; settings: NK:HT1080-luc co-culture, 24 hours, four-parameter logistic regression; FIGS. 2-4, 6-8, 10; read-out: EC50 NK cytotoxicity (tumor cell killing)
Description: (§1) Heterotandem bicyclic peptide complexes were evaluated for NK functional readouts (cytotoxicity and cytokine secretion) in NK-tumor cell line co-cultures.
(§2) NK cells were isolated using a negative isolation kit (STEMCELL™ Technologies 17955) from the total PBMC population purified from whole blood. NK cell pellet was then resuspended in DMEM medium (Corning™ 10-013-CV) with 10% heat-inactivated fetal bovine serum (FBS; Corning® 35-011-CV), 10 mM HEPES (Gibco™ 15-630-080), and 1% Penicillin Streptomycin (Corning™ 30-002-CI), and 50 IU/mL human IL-2 (Miltenyi Biotec® 130-097-748), at a concentration of 4×10^5 cells/mL. For the NK cell cytotoxicity assays, 50 μL (2×10^4) of cell suspension was plated in the 96-well plate (Grenier® Bio One™ 655090) containing 50 μl (4×10^3) HT1080-luc cells (ATCC® CCL-121-luc2) in DMEM (Gibco™ 11875-093; with L-glutamine) with 10% heat-inactivated fetal bovine serum (FBS; Corning® 35-011-CV), 10 mM HEPES (Gibco™ 15-630-080), and 1% Penicillin Streptomycin (Corning™ 30-002-CI). […] The plates were then incubated for 24 hours at 37° C., 5% CO2. Post-incubation, plates was centrifuged at 250×g for 5 minutes and 100 μl supernatant discarded. Samples were then incubated 10 minutes with 50 μl Bright-Glo™ Luciferase Assay system (Promega™ E2620). Luminescence upon excitation at 570 nm was read using a CLARIOstar® plate-reader with MARS Data Analysis Software™. Data was fit to a four-parameter non-linear regression in GraphPad Prism™ 8.0.2 to generate an EC50 value.

HT1080-luc cells = test: as above; format: cell-based, human; settings: in comparison to NK:HT1080-luc co-culture without heterotandem complex (NK-TICA)
Description: as §1, §2

[2] = tested on: NK cells co-cultured with the HT1080-luc tumor cell line; test: Cytokine secretion assay (IFN-gamma, TNF-alpha; NK:HT1080-luc co-culture); format: cell-based, human; settings: for TNF-alpha and IFN-gamma production from NK cells: 2 nM construct, Luminex, FIG. 11
Description: as §1
NK cells were isolated using a negative isolation kit (STEMCELL Technologies® 17955) from the total PBMC population purified from whole blood. NK cell pellet was then resuspended in DMEM medium (Corning™ 10-013-CV) with 10% heat-inactivated fetal bovine serum (FBS; Corning® 35-011-CV), 10 mM HEPES (Gibco™ 15-630-080), and 1% Penicillin Streptomycin (Corning™ 30-002-CI), and 50 IU/mL human IL-2 (Miltenyi Biotec® 130-097-748), at a concentration of 4×10^5 cells/mL. For the NK cell cytokine secretion assay, […] NK cell in 50 μl cell suspension were plated in the 96-well U-bottom plate (Grenier Bio One™ 650180) containing 50 μl (4×10^4) HT1080-luc cells (ATCC® CCL-121-luc2) in DMEM (Gibco™ 11875-093; with L-glutamine) with 10% heat-inactivated fetal bovine serum (FBS; Corning® 35-011-CV), 10 mM HEPES (Gibco™ 15-630-080), and 1% Penicillin Streptomycin (Corning™ 30-002-CI). […] The plates were then incubated for 4 hours at 37° C., 5% CO2. Post-incubation, plates was centrifuged at 250×g for 5 minutes and 100 μl supernatant harvested. Samples were immediately stored at −20° C. or assessed for cytokine levels. Interferon-gamma or TNF-alpha levels were measured in 50 μl of collected supernatants through the Human IFN-gamma Quantikine™ ELISA kit (R&D Systems DIF50C) or Human TNF-alpha Quantikine™ ELISA kit (R&D Systems DTAOOD). Data was acquired at wavelength of 450 nm on CLARIOstar® plate-reader and was fit to a four-parameter non-linear regression in CLARIOstar® plate reader MARS Data Analysis™ software and analyzed with GraphPad Prism™ 8.0.2 software to quantify to cytokine levels. Alternatively, TNF-alpha and IFN-gamma cytokine were measured from 25 μl of collected supernatant by Luminex Assay: Human XL Cytokine Discovery Premixed Kit (R&D Systems, FCS™ 18-05) Luminex 200™ flow instrument and xPONENT™ analysis software.

[3] = target: EPH receptor A2 (ephrin type-A receptor 2) (human) (UniProt P29317); test: cell-based or functional assay
Sequence of EPH receptor A2 (ephrin type-A receptor 2) (human) (P29317 24-976): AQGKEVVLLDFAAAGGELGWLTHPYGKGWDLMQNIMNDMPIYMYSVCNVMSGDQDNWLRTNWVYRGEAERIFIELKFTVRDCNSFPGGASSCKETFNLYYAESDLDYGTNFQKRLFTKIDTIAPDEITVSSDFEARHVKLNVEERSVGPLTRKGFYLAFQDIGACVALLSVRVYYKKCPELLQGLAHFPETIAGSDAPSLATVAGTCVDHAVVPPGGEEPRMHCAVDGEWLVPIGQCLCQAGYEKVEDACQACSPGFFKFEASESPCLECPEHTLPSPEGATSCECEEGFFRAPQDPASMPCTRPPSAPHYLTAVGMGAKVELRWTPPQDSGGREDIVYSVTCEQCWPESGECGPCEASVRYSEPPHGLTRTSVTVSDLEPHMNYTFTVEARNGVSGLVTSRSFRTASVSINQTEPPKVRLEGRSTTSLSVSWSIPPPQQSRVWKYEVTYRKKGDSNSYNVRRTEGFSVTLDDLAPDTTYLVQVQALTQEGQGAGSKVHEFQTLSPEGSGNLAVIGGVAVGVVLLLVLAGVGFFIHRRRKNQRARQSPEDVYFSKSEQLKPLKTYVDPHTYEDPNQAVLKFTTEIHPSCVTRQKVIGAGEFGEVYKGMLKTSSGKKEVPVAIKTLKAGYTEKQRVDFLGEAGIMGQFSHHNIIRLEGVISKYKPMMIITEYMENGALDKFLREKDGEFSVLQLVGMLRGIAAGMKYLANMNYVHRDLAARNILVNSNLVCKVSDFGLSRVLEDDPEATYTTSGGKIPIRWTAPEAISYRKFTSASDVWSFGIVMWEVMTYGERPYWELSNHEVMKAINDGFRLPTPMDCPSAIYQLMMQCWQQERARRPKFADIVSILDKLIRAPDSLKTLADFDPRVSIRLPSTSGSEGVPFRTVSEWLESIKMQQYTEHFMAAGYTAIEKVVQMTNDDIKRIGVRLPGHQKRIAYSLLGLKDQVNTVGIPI

NKp46 (human) = NKp46 (human) (UniProt O76036); test: cell-based or functional assay
Sequence of NKp46 (human) (O76036 22-304): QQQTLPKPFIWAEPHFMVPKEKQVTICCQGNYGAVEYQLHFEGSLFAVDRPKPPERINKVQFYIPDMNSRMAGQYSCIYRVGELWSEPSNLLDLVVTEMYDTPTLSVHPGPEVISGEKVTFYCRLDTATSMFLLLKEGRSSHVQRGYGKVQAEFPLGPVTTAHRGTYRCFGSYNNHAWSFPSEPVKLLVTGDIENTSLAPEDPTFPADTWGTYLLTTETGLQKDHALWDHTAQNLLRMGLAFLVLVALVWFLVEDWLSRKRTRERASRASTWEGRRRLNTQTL

| Molecule | EC50 [1] | effect on tumor cell killing by NK cells, in words (HT1080-luc cells) | TNF-alpha and IFN-gamma production from NK cells [2] | EC50, NK cytotoxicity assay (HT1080-luc luminescence) [3] | further results |
| --- | --- | --- | --- | --- | --- |
| CC(=O)N[C@H]1CSCCC(=O)N2CN3CN(C2)C(=O)CCSC[C@H](NC(=O)[C@H](CC(C)C)NC(=O)[C@H](Cc2ccc(O)cc2)NC(=O)[C@H](CC(=O)O)NC(=O)[C@@H]2CCCN2C(=O)[C@H](CC2CCC2)NC(=O)[C@H](Cc2ccc(O)cc2)NC1=O)C(=O)N[C@H](C)C(=O)N[C@@H](CC(=O)O)C(=O)N[C@@H](CCC(=O)O)C(=O)N[C@@H](Cc1ccc(O)cc1)C(=O)N[C@H](C(=O)N[C@@H](CCCCNC(=O)CCc1cn(CCOCCOCCOCCOCCOCCC(=O)N[C@@H](C)C(=O)N[C@@H](CCCCNC(=N)N)C(=O)N[C@@H](CC(=O)O)C(=O)N[C@H]2CSCCC(=O)N4CN5CN(C4)C(=O)CCSC[C@H](NC(=O)[C@H](CC(C)C)NC(=O)[C@@H]4CCCN4C(=O)[C@H](CC(N)=O)NC(=O)[C@H](C(C)C)NC(=O)[C@H](CC(C)C)NC(=O)[C@@H]4C[C@@H](O)CN4C2=O)C(=O)N[C@@H](CC(C)C)C(=O)N[C@@H](Cc2c[nH]cn2)C(=O)N2CCC[C@H]2C(=O)N[C@H](CC(=O)O)C(=O)N[C@@H](Cc2c[nH]c4ccccc24)C(=O)N[C@@H](CCCCNC(=N)N)C(=O)N[C@H](C(N)=O)CSCCC5=O)nn1)C(N)=O)CSCCC3=O [BCY17225] (I: A[hArg]DC[Hyp]LVNPLCLHP[dD]W[hArg]C-NH2 / II: Ac-CY[Cba]PDYLC[dA]DEYCK-NH2; linker I:4-I:11-I:18, II:1-II:8-II:13 via TATA; linker I:N-II:14 via X2; C-terminus assumed) | 3.6 pM | enhanced, dose-dependent effect in tumor cell killing | Cytokine production from NK cells was observed |  |  |
| CC(=O)N[C@H]1CSCCC(=O)N2CN3CN(C2)C(=O)CCSC[C@H](NC(=O)[C@H](CC(C)C)NC(=O)[C@H](Cc2ccc(O)cc2)NC(=O)[C@H](CC(=O)O)NC(=O)[C@@H]2CCCN2C(=O)[C@H](CC2CCC2)NC(=O)[C@H](Cc2ccc(O)cc2)NC1=O)C(=O)N[C@H](C)C(=O)N[C@@H](CC(=O)O)C(=O)N[C@@H](CCC(=O)O)C(=O)N[C@@H](Cc1ccc(O)cc1)C(=O)N[C@H](C(=O)N[C@@H](CCCCNC(=O)CCc1cn(CCOCCOCCOCCOCCNC(=O)CCOCC(COCCC(=O)NCCOCCOCCOCCOCCn2cc(CCC(=O)NCCCC[C@H](NC(=O)[C@@H]4CSCCC(=O)N5CN6CN(C5)C(=O)CCSC[C@H](NC(=O)[C@H](CC(C)C)NC(=O)[C@H](Cc5ccc(O)cc5)NC(=O)[C@H](CC(=O)O)NC(=O)[C@@H]5CCCN5C(=O)[C@H](CC5CCC5)NC(=O)[C@H](Cc5ccc(O)cc5)NC(=O)[C@@H](NC(C)=O)CSCCC6=O)C(=O)N[C@H](C)C(=O)N[C@@H](CC(=O)O)C(=O)N[C@@H](CCC(=O)O)C(=O)N[C@@H](Cc5ccc(O)cc5)C(=O)N4)C(N)=O)nn2)(COCCC(=O)NCCOCCOCCOCCOCCn2cc(CCC(=O)NCCCC[C@H](NC(=O)[C@@H]4CSCCC(=O)N5CN6CN(C5)C(=O)CCSC[C@H](NC(=O)[C@H](CC(C)C)NC(=O)[C@H](Cc5ccc(O)cc5)NC(=O)[C@H](CC(=O)O)NC(=O)[C@@H]5CCCN5C(=O)[C@H](CC5CCC5)NC(=O)[C@H](Cc5ccc(O)cc5)NC(=O)[C@@H](NC(C)=O)CSCCC6=O)C(=O)N[C@H](C)C(=O)N[C@@H](CC(=O)O)C(=O)N[C@@H](CCC(=O)O)C(=O)N[C@@H](Cc5ccc(O)cc5)C(=O)N4)C(N)=O)nn2)NC(=O)CCOCCOCCOCCOCCOCCC(=O)N[C@@H](C)C(=O)N[C@@H](CCCCNC(=N)N)C(=O)N[C@@H](CC(=O)O)C(=O)N[C@H]2CSCCC(=O)N4CN5CN(C4)C(=O)CCSC[C@H](NC(=O)[C@H](CC(C)C)NC(=O)[C@@H]4CCCN4C(=O)[C@H](CC(N)=O)NC(=O)[C@H](C(C)C)NC(=O)[C@H](CC(C)C)NC(=O)[C@@H]4C[C@@H](O)CN4C2=O)C(=O)N[C@@H](CC(C)C)C(=O)N[C@@H](Cc2c[nH]cn2)C(=O)N2CCC[C@H]2C(=O)N[C@H](CC(=O)O)C(=O)N[C@@H](Cc2c[nH]c4ccccc24)C(=O)N[C@@H](CCCCNC(=N)N)C(=O)N[C@H](C(N)=O)CSCCC5=O)nn1)C(N)=O)CSCCC3=O [BCY21686] | 1.3 pM | enhanced, dose-dependent effect in tumor cell killing | Cytokine production from NK cells was observed |  |  |
| BCY18048: EphA2 specific peptide BCY9594 linked to two NKp46 specific peptides (BCY17662) via N-(acid-PEG3)-N-bis(PEG3-azide) linker (peptide 1 A[hArg]DC[Hyp]LVNPLCLHP[dD]W[hArg]C; peptide 2 ACYLPDYLC[dK](Pent4ynoyl)DEYCA; linker I:4-I:11-I:18, II:2-II:9-II:14 via TATA; also: chain 1 N-terminus and chain 2 D-Lys(PYA) joined through N-(acid-PEG3)-N-bis(PEG3-azide) linker, two copies of chain 2) |  |  |  |  | secretion of IFN-gamma and TNF-alpha by NK cells ([2]; 10 nM construct, ELISA, FIG. 12): induced secretion of IFN-gamma and TNF-alpha |
| BCY21687: EphA2 specific peptide BCY9594 linked to three NKp46 specific peptides (BCY17224) via Methane-N-(PEG10-acid)-Tri(MeOPr-amide-PEG10-azide) linker (peptide 1 A[hArg]DC[Hyp]LVNPLCLHP[dD]W[hArg]C; peptide 2 Ac-CY[Cba]PDYLC[dA]DEYCK(Pent4ynoyl); linker I:4-I:11-I:18, II:1-II:8-II:13 via TATA; also: chain 1 N-terminus and chain 2 K(PYA) joined through Methane-N-(PEG10-acid)-Tri(MeOPr-amide-PEG10-azide) linker, three copies of chain 2) |  |  | Cytokine production from NK cells was observed |  |  |
| heterotandem bicyclic peptide complex BCY17226 (BCY17224: N-terminal acetyl; Cba (beta-cyclobutylalanine) and dA (D-Ala) within SEQ ID NO: 5; C-terminal Lys(PYA) joined to the linker azide; Ci, Cii, Ciii cyclised on TATA scaffold; BCY9594: HArg (homoarginine) as 2nd residue of the N-terminal extension; HyP, dD and HArg within SEQ ID NO: 2; Ci, Cii, Ciii cyclised on TATA scaffold; N-terminus joined to the linker) peptide 1: AXDCXLVNPLCLHPDWXC peptide 2: CYXPDYLCADEYCK |  |  |  | 6.1 pM |  |
| heterotandem bicyclic peptide complex BCY15923 (linker I:4-I:11-I:18, II:2-II:9-II:14 via TATA; also: EphA2:NKp46 1:2, two copies of chain 2 on the linker, X5, X17: HyP or HArg, linker at chain B 16 to a chain's N-terminus via N-(acid-PEG3)-N-bis(PEG3-azide) linker) peptide 1: A[hArg]DC[Hyp]LVNPLCLHP[dD]W[hArg]C peptide 2: ACDLTTHNCQWGICAK(Pent4ynoyl) |  |  |  | 44 pM | EC50, NK cytotoxicity assay (HT1080-luc luminescence) (NKp46 (human)): 44 pM |
